Assay results reported in US20240109900A1, “AZABICYCLIC SHP2 INHIBITORS” (IRBM S.P.A., priority 2021, published 2024).
pIC50: −log10 of the molar value. Read-outs that look alike come from different tables or passages of the source.

Columns and labels:
[1] = target: SHP-2 enzyme (Met1-Leu525) (Homo sapiens (Human), UniProt Q06124); assay: SHP2 inhibition enzymatic assay; type: biochemical; conditions: 0.5 nM SHP-2 activated by 500 nM IRS1 peptide, 75 μM DiFMUP substrate; read-out: SHP2wt-IC50
How it was run: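 SHP-2 (Met1-Leu525), 0.5 nM, activated with 500 nM IRS1 bis-phosphopeptide, preincubated 30 min with compounds in HEPES pH 7.2 buffer with 5 mM DTT. 75 μM DiFMUP added for 30 min at room temperature, stopped with bpV; fluorescence read. IC50 from four-parameter logistic fit of % inhibition.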

[2] = test system: ERK phosphorylation in KYSE-520 cells; assay: Phospho-ERK cellular assay; type: cell-based; conditions: KYSE-520 cells, 2 h at 37° C., phospho-ERK1/2 (Thr202/Tyr204) TR-FRET, read-out: PERK IC50
How it was run: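 TR-FRET read-out of ERK1/2 Thr202/Tyr204 phosphorylation was taken after overnight antibody incubation at room temperature. Before that, KYSE-520 cells were treated 2 h at 37 °C with compound dilutions and lysed 30 min. Percent inhibition relative to vehicle and cell-free wells was fitted four-parametrically to give IC50.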

Chain of SHP-2 enzyme (Met1-Leu525) (Q06124 1-525): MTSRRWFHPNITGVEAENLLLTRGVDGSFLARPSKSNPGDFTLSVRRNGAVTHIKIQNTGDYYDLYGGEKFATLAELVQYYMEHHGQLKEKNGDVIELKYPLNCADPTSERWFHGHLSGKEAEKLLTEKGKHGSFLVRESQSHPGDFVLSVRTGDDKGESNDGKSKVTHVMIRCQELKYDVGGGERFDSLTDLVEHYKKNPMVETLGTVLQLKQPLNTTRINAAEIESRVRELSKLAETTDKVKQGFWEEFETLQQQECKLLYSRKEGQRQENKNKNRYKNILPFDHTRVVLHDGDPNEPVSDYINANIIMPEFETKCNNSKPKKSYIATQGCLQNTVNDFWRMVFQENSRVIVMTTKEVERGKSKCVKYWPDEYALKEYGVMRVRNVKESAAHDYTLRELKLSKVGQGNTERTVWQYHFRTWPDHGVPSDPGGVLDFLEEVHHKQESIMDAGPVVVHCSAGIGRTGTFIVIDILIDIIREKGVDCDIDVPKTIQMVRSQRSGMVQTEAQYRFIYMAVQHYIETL

Row | Structure (SMILES) | pIC50 [1] | pIC50 ([2]; Homo sapiens, KYSE-520, 2 h) | pIC50 [2]
1 | NC[C@]1(c2ccccc2F)[C@@H]2CCN(c3cnc4c(-c5ccc(-c6ncco6)cc5Cl)n[nH]c4n3)C[C@@H]21 [Example 264, ((1S,6R,7R)-3-(3-(2-chloro-4-(oxazol-2-yl)phenyl)-1H-pyrazolo[3,4-b]pyrazin-6-yl)-7-(2-fluorophenyl)-3-azabicyclo[4.1.0]heptan-7-yl)methanamine] | > 6.30 | > 6.00 | 
2 | Cn1ccc(-c2nccc(-c3n[nH]c4nc(N5CC[C@@H]6[C@H](C5)[C@@]6(CN)c5ccccc5F)cnc34)c2Cl)n1 [Example 265, ((1S,6R,7R)-3-(3-(3-chloro-2-(1-methyl-1H-pyrazol-3-yl)pyridin-4-yl)-1H-pyrazolo[3,4-b]pyrazin-6-yl)-7-(2-fluorophenyl)-3-azabicyclo[4.1.0]heptan-7-yl)methanamine] | > 6.30 | > 6.00 | 
3 | NC[C@]1(c2cccc(F)c2F)[C@@H]2CCN(c3cnc4c(-c5ccc(C(=O)O)c6ncccc56)n[nH]c4n3)C[C@@H]21 [Example 266, 5-(6-((1S,6R,7R)-7-(aminomethyl)-7-(2,3-difluorophenyl)-3-azabicyclo[4.1.0]heptan-3-yl)-1H-pyrazolo[3,4-b]pyrazin-3-yl)quinoline-8-carboxylic acid] | > 6.30 | > 6.00 | 
4 | CNC(=O)c1ccc(-c2n[nH]c3nc(N4CC[C@@H]5[C@H](C4)[C@@]5(CN)c4cccc(F)c4F)cnc23)c2cccnc12 [Example 267, 5-(6-((1S,6R,7R)-7-(aminomethyl)-7-(2,3-difluorophenyl)-3-azabicyclo[4.1.0]heptan-3-yl)-1H-pyrazolo[3,4-b]pyrazin-3-yl)-N-methylquinoline-8-carboxamide] | > 6.30 | > 6.00 | 
5 | NC[C@]1(c2ccccc2F)[C@@H]2CCN(c3cnc4c(-c5cc[nH]c(=O)c5Cl)n[nH]c4n3)C[C@@H]21 [Example 268, 4-(6-((1S,6R,7R)-7-(aminomethyl)-7-(2-fluorophenyl)-3-azabicyclo[4.1.0]heptan-3-yl)-1H-pyrazolo[3,4-b]pyrazin-3-yl)-3-chloropyridin-2(1H)-one] | > 6.30 | > 6.00 | 
6 | Cn1ccc(-c2n[nH]c3nc(N4CC[C@@H]5[C@H](C4)[C@@]5(CN)c4ccccc4F)cnc23)c(Cl)c1=O [Example 269, 4-(6-((1S,6R,7R)-7-(aminomethyl)-7-(2-fluorophenyl)-3-azabicyclo[4.1.0]heptan-3-yl)-1H-pyrazolo[3,4-b]pyrazin-3-yl)-3-chloro-1-methylpyridin-2(1H)-one] | > 6.30 | < 5.30 | 
7 | NC[C@]1(c2ccccc2F)[C@@H]2CCN(c3cnc4c(N5CC6(CCC6)c6ncccc65)n[nH]c4n3)C[C@@H]21 [Example 270, ((1S,6R,7R)-7-(2-fluorophenyl)-3-(3-(spiro[cyclobutane-1,3′-pyrrolo[3,2-b]pyridin]-1′(2′H)-yl)-1H-pyrazolo[3,4-b]pyrazin-6-yl)-3-azabicyclo[4.1.0]heptan-7-yl)methanamine] | > 6.30 | > 6.00 | 
8 | NC[C@]1(c2ccccc2F)[C@@H]2CCN(c3cnc4c(-c5ccc(C(=O)O)cc5Cl)n[nH]c4n3)C[C@@H]21 [Example 271, 4-(6-((1S,6R,7R)-7-(aminomethyl)-7-(2-fluorophenyl)-3-azabicyclo[4.1.0]heptan-3-yl)-1H-pyrazolo[3,4-b]pyrazin-3-yl)-3-chlorobenzoic acid] | > 6.30 | < 5.30 | 
9 | Cn1c(=O)ccc2c(-c3n[nH]c4nc(N5CC[C@@H]6[C@H](C5)[C@@]6(CN)c5ccccc5F)cnc34)cccc21 [Example 272, 5-(6-((1S,6R,7R)-7-(aminomethyl)-7-(2-fluorophenyl)-3-azabicyclo[4.1.0]heptan-3-yl)-1H-pyrazolo[3,4-b]pyrazin-3-yl)-1-methylquinolin-2(1H)-one] | > 6.30 | > 6.00 | 
10 | CNC(=O)c1ccc(-c2n[nH]c3nc(N4CC[C@@H]5[C@H](C4)[C@@]5(CN)c4ccccc4F)cnc23)c(Cl)c1 [Example 273, 4-(6-((1S,6R,7R)-7-(aminomethyl)-7-(2-fluorophenyl)-3-azabicyclo[4.1.0]heptan-3-yl)-1H-pyrazolo[3,4-b]pyrazin-3-yl)-3-chloro-N-methylbenzamide] | > 6.30 | > 6.00 | 
11 | Cn1ccc2c(-c3n[nH]c4nc(N5CC[C@@H]6[C@H](C5)[C@@]6(CN)c5ccccc5F)cnc34)cccc2c1=O [Example 274, 5-(6-((1S,6R,7R)-7-(aminomethyl)-7-(2-fluorophenyl)-3-azabicyclo[4.1.0]heptan-3-yl)-1H-pyrazolo[3,4-b]pyrazin-3-yl)-2-methylisoquinolin-1(2H)-one] | > 6.30 | > 6.00 | 
12 | Cc1cc([C@@]2(CN)[C@@H]3CN(c4cnc5c(-c6ccc7nn(C)cc7c6Cl)n[nH]c5n4)C[C@@H]32)no1 [Example 275, ((1R,5S,6r)-3-(3-(4-chloro-2-methyl-2H-indazol-5-yl)-1H-pyrazolo[3,4-b]pyrazin-6-yl)-6-(5-methylisoxazol-3-yl)-3-azabicyclo[3.1.0]hexan-6-yl)methanamine] | > 6.30 |  | > 6.00
13 | NC[C@]1(c2ccccc2F)[C@@H]2CCN(c3cnc4c(-c5ccc(C(N)=O)cc5Cl)n[nH]c4n3)C[C@@H]21 [Example 276, 4-(6-((1S,6R,7R)-7-(aminomethyl)-7-(2-fluorophenyl)-3-azabicyclo[4.1.0]heptan-3-yl)-1H-pyrazolo[3,4-b]pyrazin-3-yl)-3-chlorobenzamide] | > 6.30 | > 6.00 | 

Further lines, with some results ahead:

Row | pIC50 [1] | pIC50 ([2]; Homo sapiens, KYSE-520, 2 h) | Structure (SMILES) | pIC50 [2]
14 | > 6.30 | < 5.30 | NC[C@]1(c2ccccc2F)[C@@H]2CCN(c3cnc4c(-c5ccc6cc(Cl)cnc6c5)n[nH]c4n3)C[C@@H]21 [Example 255, ((1S,6R,7R)-3-(3-(3-chloroquinolin-7-yl)-1H-pyrazolo[3,4-b]pyrazin-6-yl)-7-(2-fluorophenyl)-3-azabicyclo[4.1.0]heptan-7-yl)methanamine] | 
15 | > 6.30 | > 6.00 | NC[C@]1(c2ccccc2F)[C@@H]2CCN(c3cnc4c(-c5ccc(-c6cn[nH]c6)cc5Cl)n[nH]c4n3)C[C@@H]21 [Example 256, ((1S,6R,7R)-3-(3-(2-chloro-4-(1H-pyrazol-4-yl)phenyl)-1H-pyrazolo[3,4-b]pyrazin-6-yl)-7-(2-fluorophenyl)-3-azabicyclo[4.1.0]heptan-7-yl)methanamine] | 
16 | > 6.30 | < 5.30 | NC[C@]1(c2ccccc2F)[C@@H]2CCN(c3cnc4c(-c5ccc(C(=O)O)c6ccccc56)n[nH]c4n3)C[C@@H]21 [Example 257, 4-(6-((1S,6R,7R)-7-(aminomethyl)-7-(2-fluorophenyl)-3-azabicyclo[4.1.0]heptan-3-yl)-1H-pyrazolo[3,4-b]pyrazin-3-yl)-1-naphthoic acid] | 
17 | > 6.30 | < 5.30 | NC[C@]1(c2ccccc2F)[C@@H]2CCN(c3cnc4c(-c5ccc6nccc(N)c6c5)n[nH]c4n3)C[C@@H]21 [Example 258, 6-(6-((1S,6R,7R)-7-(aminomethyl)-7-(2-fluorophenyl)-3-azabicyclo[4.1.0]heptan-3-yl)-1H-pyrazolo[3,4-b]pyrazin-3-yl)quinolin-4-amine] | 
18 | > 6.30 | > 6.00 | Cc1c(-c2n[nH]c3nc(N4CC[C@@H]5[C@H](C4)[C@@]5(CN)c4ccccc4F)cnc23)ccc2[nH]c(=O)[nH]c12 [Example 259, 5-(6-((1S,6R,7R)-7-(aminomethyl)-7-(2-fluorophenyl)-3-azabicyclo[4.1.0]heptan-3-yl)-1H-pyrazolo[3,4-b]pyrazin-3-yl)-4-methyl-1,3-dihydro-2H-benzo[d]imidazol-2-one] | 
19 | > 6.30 | < 5.30 | NC[C@]1(c2ccccc2F)[C@@H]2CCN(c3cnc4c(-c5ccc6nccc(=O)n6c5)n[nH]c4n3)C[C@@H]21 [Example 260, 7-(6-((1S,6R,7R)-7-(aminomethyl)-7-(2-fluorophenyl)-3-azabicyclo[4.1.0]heptan-3-yl)-1H-pyrazolo[3,4-b]pyrazin-3-yl)-4H-pyrido[1,2-a]pyrimidin-4-one] | 
20 | > 6.30 | > 6.00 | Cc1c(-c2n[nH]c3nc(N4CC[C@@H]5[C@H](C4)[C@@]5(CN)c4ccccc4F)cnc23)ccc2c1n(C)c(=O)n2C [Example 261, 5-(6-((1S,6R,7R)-7-(aminomethyl)-7-(2-fluorophenyl)-3-azabicyclo[4.1.0]heptan-3-yl)-1H-pyrazolo[3,4-b]pyrazin-3-yl)-1,3,4-trimethyl-1,3-dihydro-2H-benzo[d]imidazol-2-one] | 
21 | > 6.30 | > 6.00 | COc1cc2ccc(-c3n[nH]c4nc(N5CC[C@@H]6[C@H](C5)[C@@]6(CN)c5ccccc5F)cnc34)cc2nn1 [Example 262, ((1S,6R,7R)-7-(2-fluorophenyl)-3-(3-(3-methoxycinnolin-7-yl)-1H-pyrazolo[3,4-b]pyrazin-6-yl)-3-azabicyclo[4.1.0]heptan-7-yl)methanamine] | 
22 | > 6.30 | > 6.00 | NC[C@]1(c2ccccc2F)[C@@H]2CCN(c3cnc4c(-c5ccnc(-c6cnco6)c5Cl)n[nH]c4n3)C[C@@H]21 [Example 263, ((1S,6R,7R)-3-(3-(3-chloro-2-(oxazol-5-yl)pyridin-4-yl)-1H-pyrazolo[3,4-b]pyrazin-6-yl)-7-(2-fluorophenyl)-3-azabicyclo[4.1.0]heptan-7-yl)methanamine] | 
